Reference: publication PMC3907829, “Characterization of an Invertebrate-Type Dopamine Receptor of the American Cockroach, Periplaneta americana” (International Journal of Molecular Sciences, 2014)
Several values for one entry are separate records, joined by “and”; a condition that tells them apart may be missing. Equal entries are not always repeated. Entries after “also recorded” stand apart in the source; their conditions may differ. Structures can show the parent of a compound that is named as a salt. Where two headings read alike, the source gives them in different places.

Assays:
PeaDOP2A receptor [1] = target: T1, PeaDOP2A receptor (Periplaneta americana, UniProt V6DNI7); experiment: cAMP production in HEK 293 cells stably expressing PeaDOP2A; type: cell-based; details: for effect on [cAMP]i (agonist, in words): ligand 10 μM; for effect on dopamine-induced increase in [cAMP]i (antagonist, in words): co-incubation with dopamine
T1 sequence (V6DNI7 entry or part of it): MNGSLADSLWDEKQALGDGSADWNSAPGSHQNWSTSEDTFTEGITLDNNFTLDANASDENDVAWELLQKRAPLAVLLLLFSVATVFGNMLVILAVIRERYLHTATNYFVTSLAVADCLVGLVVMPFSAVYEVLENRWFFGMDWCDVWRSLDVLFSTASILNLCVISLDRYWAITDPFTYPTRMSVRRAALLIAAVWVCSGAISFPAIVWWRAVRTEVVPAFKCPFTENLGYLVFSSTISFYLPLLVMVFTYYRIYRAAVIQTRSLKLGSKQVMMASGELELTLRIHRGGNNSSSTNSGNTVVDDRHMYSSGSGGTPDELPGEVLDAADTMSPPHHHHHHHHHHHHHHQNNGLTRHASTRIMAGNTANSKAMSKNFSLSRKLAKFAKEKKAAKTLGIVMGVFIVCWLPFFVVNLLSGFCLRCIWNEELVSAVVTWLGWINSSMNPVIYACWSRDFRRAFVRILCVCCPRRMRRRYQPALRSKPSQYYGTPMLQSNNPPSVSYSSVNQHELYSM
Experimental: Stably transfected cells were selected in the presence of the antibiotic G418 at 0.8 mg/mL. Isolated foci were propagated and analyzed for the expression of PeaDOP2A/B-HA by immunocytochemistry and Western blot analysis with a commercial anti-HA antibody (anti-HA high affinity; Roche, Penzberg, Germany).

PeaDOP2B receptor [2] = experiment: cAMP production in HEK 293 cells stably expressing PeaDOP2B; type: cell-based, Periplaneta americana; details: for change of intracellular cAMP level: biogenic amines 10 μM
Experimental: Approximately 8 μg pcPeadop2A/B-HA vector was separately introduced into exponentially growing HEK 293 cells (~4 × 10^5 cells per 5 cm Petri dish; Greiner, Frickenhausen, Germany) by a modified calcium phosphate method. Stably transfected cells were selected in the presence of the antibiotic G418 at 0.8 mg/mL. Isolated foci were propagated and analyzed for the expression of PeaDOP2A/B-HA by immunocytochemistry and Western blot analysis with a commercial anti-HA antibody (anti-HA high affinity; Roche, Penzberg, Germany).

[3] = tested on: non-transfected HEK 293 cells; details: dopamine 1 nM to 10 μM
Experimental: Assays to determine the ability of PeaDOP2A/B-HA receptors to stimulate adenylyl cyclase activity were performed as described earlier [108]. PeaDOP2A/B-expressing cells were grown in minimal essential medium with GlutaMAX™ (Invitrogen, Karlsruhe, Germany), 10% (v/v) fetal bovine serum, 1% (v/v) non-essential amino acids, and antibiotics (all from Invitrogen, Karlsruhe, Germany). Cells were incubated with ligands for 30 min at 37 °C in the presence of the phosphodiesterase inhibitor isobutylmethylxanthine (IBMX; Sigma, Taufkirchen, Germany; final concentration 100 μM) and lysed by adding 0.5 mL ice-cold ethanol. After 1 h at 4 °C, the lysate was transferred to a reaction tube and lyophilized. The amount of cAMP produced was determined by using the TRK 432 cyclic AMP assay kit (GE Healthcare, Freiburg, Germany).

PeaDOP2A receptor [4] = target: T1, PeaDOP2A receptor; details: PeaDOP2A cell line
PeaDOP2B receptor [5] = details: PeaDOP2B cell line
[6] = target: D. melanogaster DOP2 receptor; details: read-out: EC50 for dopamine-induced cAMP increase; cited from earlier work
[7] = target: A. mellifera DOP2 receptor; details: read-out: EC50 for dopamine-induced cAMP increase; cited from earlier work
C. felis DOP2 receptor = details: read-out: EC50 for dopamine-induced cAMP increase; cited from earlier work
[8] = target: Bombyx mori DOP2 receptor; details: read-out: EC50 for dopamine-induced cAMP increase; cited from earlier work
[9] = antagonist, in the presence of 300 nM dopamine, PeaDOP2A-expressing HEK 293 cells, read-out: IC50 for blocking dopamine (300 nM)-induced cAMP increase
[10] = agonist, HEK 293 cells expressing PeaDOP2A, 30 min, 37 °C, 100 μM IBMX, read-out: EC50 for increasing [cAMP]i
[11] = agonist, log of molar EC50 (negative values), PeaDOP2A-expressing HEK 293 cells
[12] = IC50 for blocking dopamine (300 nM)-induced cAMP increase, antagonist, in the presence of 300 nM dopamine, PeaDOP2A-expressing HEK 293 cells
[13] = log IC50, antagonist, log of molar IC50 (negative values), in the presence of 300 nM dopamine

SMILES: OCCN1CCN(CC/C=C2/c3ccccc3Sc3ccc(C(F)(F)F)cc32)CC1 [flupentixol, cis(Z)-flupentixol dihydrochloride]
- IC50 (PeaDOP2A receptor [1]; [9]): 6.5 nM

SMILES: Oc1cc2c(cc1O)[C@@H](c1ccccc1)CNCC2 [SKF 38393, R(+)-SKF 38393 hydrochloride]
- effect on [cAMP]i (agonist, in words) (PeaDOP2A receptor [1]; PeaDOP2A-expressing cells): does not show any effect

SMILES: NCCc1c[nH]cn1 [histamine, histamine dihydrochloride]
- effect on [cAMP]i (agonist, in words) (PeaDOP2A receptor [1]; PeaDOP2A-expressing cells): no effect
- change of intracellular cAMP level (PeaDOP2B receptor [2]): None of the biogenic amines induced a change

SMILES: NC1CCc2cc(O)c(O)cc2C1 (racemic) [6,7-ADTN, (±)-2-amino-6,7-dihydroxy-1,2,3,4-tetrahydronaphthalene]
- effect on [cAMP]i (agonist, in words) (PeaDOP2A receptor [1]; PeaDOP2A-expressing cells): lead to an increase in [cAMP]i; also recorded: mimicked
- EC50 (PeaDOP2A receptor [1]; [10]): 76.4 nM
- logEC50 (PeaDOP2A receptor [1]; [11]): −7.117

SMILES: CN(C)CCCN1c2ccccc2Sc2ccc(Cl)cc21 [chlorpromazine, Chlorpromazine hydrochloride]
- IC50 (PeaDOP2A receptor [1]; [12]): 2.7 nM
- effect on dopamine-induced increase in [cAMP]i (antagonist, in words) (PeaDOP2A receptor [1]; PeaDOP2A-expressing cells): able to counteract the dopamine-induced increase in [cAMP]i fully; also recorded: abolished
- IC50 (PeaDOP2A receptor [1]; [13]): 2.7 nM

SMILES: CN1CCc2cc(Cl)c(O)cc2[C@@H](c2ccccc2)C1 [SCH 23390, R(+)-SCH 23390 hydrochloride]
- effect on dopamine-induced increase in [cAMP]i (antagonist, in words) (PeaDOP2A receptor [1]; PeaDOP2A-expressing cells): able to counteract the dopamine-induced increase in [cAMP]i fully
- IC50 (PeaDOP2A receptor [1]; [9]): 1790 nM
- IC50 (PeaDOP2A receptor [1]; antagonist, log of molar IC50 (negative values), in the presence of 300 nM dopamine, read-out: log IC50 (converted)): 1790 nM

SMILES: NCCc1ccc(O)c(O)c1 [dopamine, dopamine hydrochloride]
- cAMP production (PeaDOP2A receptor [1]; 10 μM ligand, PeaDOP2A-expressing cells): 300 pmol cAMP/mg protein
- EC50 (PeaDOP2A receptor [1]; EC50 for increasing [cAMP]i, agonist, HEK 293 cells expressing PeaDOP2A, 30 min, 37 °C, 100 μM IBMX): 160 nM and 163 nM
- concentration for maximal stimulation of cAMP synthesis (PeaDOP2A receptor [1]; PeaDOP2A-expressing cells, dose range 1 nM to 10 μM): ≥ 1 µM
- effect on [cAMP]i (agonist, in words) (PeaDOP2A receptor [1]; PeaDOP2A-expressing cells): leads to an increase in [cAMP]i
- EC50 (PeaDOP2A receptor [1]; logEC50, agonist, log of molar EC50 (negative values), PeaDOP2A-expressing HEK 293 cells): 166 nM and 163 nM
- change of intracellular cAMP level (PeaDOP2B receptor [2]): None of the biogenic amines induced a change
- effect on [cAMP]i, dose-response (PeaDOP2B receptor [2]; dopamine 1 nM to 10 μM): None of the dopamine concentrations showed an effect; also recorded: does not affect [cAMP]i
- effect on [cAMP]i, dose-response [3]: None of the dopamine concentrations showed an effect
- change in [Ca2+]i upon dopamine incubation (PeaDOP2A receptor [4]): Neither PeaDOP2 receptor cause changes in [Ca^2+]i
- change in [Ca2+]i upon dopamine incubation (PeaDOP2B receptor [5]): Neither PeaDOP2 receptor cause changes in [Ca^2+]i
- EC50 [6]: 350 nM
- EC50 [7]: 2200 nM
- EC50 (C. felis DOP2 receptor): 2400 nM
- EC50 [8]: 1300 nM

SMILES: C=CCN1CCc2c(cc(O)c(O)c2Cl)C(c2ccccc2)C1 (racemic) [6-chloro-APB, (±)-6-Chloro-7,8-dihydroxy-3-allyl-1-phenyl-2,3,4,5-tetrahydro-1H-3-benzazepine]
- effect on [cAMP]i (agonist, in words) (PeaDOP2A receptor [1]; PeaDOP2A-expressing cells): lead to an increase in [cAMP]i; also recorded: mimicked
- EC50 (PeaDOP2A receptor [1]; [10]): 382 nM
- logEC50 (PeaDOP2A receptor [1]; [11]): −6.418

SMILES: Cl.NCCc1c[nH]c2ccc(O)cc12 [serotonin, 5-hydroxytryptamine hydrochloride]
- effect on [cAMP]i (agonist, in words) (PeaDOP2A receptor [1]; PeaDOP2A-expressing cells): no effect
- change of intracellular cAMP level (PeaDOP2B receptor [2]): None of the biogenic amines induced a change

SMILES: CC(C)(C)[C@]1(O)CCN2C[C@H]3c4ccccc4CCc4cccc(c43)[C@@H]2C1 [butaclamol, S(+)-butaclamol hydrochloride]
- IC50 (PeaDOP2A receptor [1]; [12]): 326 nM
- effect on dopamine-induced increase in [cAMP]i (antagonist, in words) (PeaDOP2A receptor [1]; PeaDOP2A-expressing cells): able to counteract the dopamine-induced increase in [cAMP]i fully
- IC50 (PeaDOP2A receptor [1]; [13]): 326 nM

SMILES: CN1CCc2cccc3c2[C@H]1Cc1ccc(O)c(O)c1-3 [apomorphine, apomorphine hydrochloride hemihydrate]
- effect on [cAMP]i (agonist, in words) (PeaDOP2A receptor [1]; PeaDOP2A-expressing cells): lead to an increase in [cAMP]i

SMILES: NCC(O)c1ccc(O)cc1 (racemic) [octopamine, (±)-octopamine hydrochloride]
- effect on [cAMP]i (agonist, in words) (PeaDOP2A receptor [1]; PeaDOP2A-expressing cells): no effect
- change of intracellular cAMP level (PeaDOP2B receptor [2]): None of the biogenic amines induced a change

SMILES: Cl.Cl.OCCN1CCN(CCC=C2c3ccccc3Sc3ccc(C(F)(F)F)cc32)CC1 (mixture of isomers) [flupentixol, cis(Z)-flupentixol dihydrochloride]
- cAMP as percentage of the value with 300 nM dopamine (=100%) (PeaDOP2A receptor [1]; 10 μM antagonist in the presence of 300 nM dopamine, basal level […]): 7.0%
- effect on dopamine-induced increase in [cAMP]i (antagonist, in words) (PeaDOP2A receptor [1]; PeaDOP2A-expressing cells): able to counteract the dopamine-induced increase in [cAMP]i fully
- effect on dopamine-induced increase in [cAMP]i (antagonist, in words) (PeaDOP2A receptor [1]; PeaDOP2A-expressing cells, listed as cis(Z)-flupentixol): abolished
- log IC50 (PeaDOP2A receptor [1]; antagonist, log of molar IC50 (negative values), in the presence of 300 nM dopamine): −8.189

SMILES: NCCc1ccc(O)cc1 [tyramine, tyramine hydrochloride]
- effect on [cAMP]i (agonist, in words) (PeaDOP2A receptor [1]; PeaDOP2A-expressing cells): no effect
- change of intracellular cAMP level (PeaDOP2B receptor [2]): None of the biogenic amines induced a change

SMILES: CC(C)C[C@H]1C(=O)N2CCC[C@H]2[C@]2(O)O[C@](NC(=O)[C@@H]3C=C4c5cccc6[nH]c(Br)c(c56)C[C@H]4N(C)C3)(C(C)C)C(=O)N12 [bromocriptine, bromocriptine mesylate]
- effect on [cAMP]i (agonist, in words) (PeaDOP2A receptor [1]; PeaDOP2A-expressing cells): fails to increase [cAMP]i
